Key:
Assay in all cases: Kinase panel
Assay type in all cases: biochemical
ACTR2(h) = biological target: T1, ACTR2(h) (Homo sapiens, UniProt P27037); conditions: read-out: % Residual Activity
T1 construct: purchased Eurofins (KinaseProfiler)
How it was run: (§1)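 For each panel kinase, rilpivirine inhibition is measured by radioactive phosphate transfer with ATP at that enzyme's Km, […].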

Abl (H396P) (h) = biological target: T2, Abl (H396P) (h) (Homo sapiens, UniProt P00519, H396P); conditions: read-out: % Residual Activity
T2 construct: purchased Eurofins (KinaseProfiler)
How it was run: as §1

Abl(T315I)(h) = biological target: T3, Abl(T315I)(h) (Homo sapiens, UniProt P00519, T315I); conditions: read-out: % Residual Activity
T3 construct: purchased Eurofins (KinaseProfiler)
How it was run: as §1

BTK(R28H)(h) = biological target: T4, BTK(R28H)(h) (Homo sapiens, UniProt Q06187, R28H); conditions: read-out: % Residual Activity
T4 construct: purchased Eurofins (KinaseProfiler)
How it was run: as §1

Blk(m) = biological target: T5, Blk(m) (Mus musculus, UniProt P16277); conditions: read-out: % Residual Activity
T5 construct: purchased Eurofins (KinaseProfiler)
How it was run: as §1

CHK2(h) = biological target: T6, CHK2(h) (Homo sapiens, UniProt O96017); conditions: read-out: % Residual Activity
T6 construct: purchased Eurofins (KinaseProfiler)
How it was run: as §1

Cdc7/cyclinB1(h) = biological target: T7, Cdc7/cyclinB1(h) (Homo sapiens, UniProt O00311); conditions: read-out: % Residual Activity
T7 construct: purchased Eurofins (KinaseProfiler)
How it was run: as §1

DAPK2(h) = biological target: T8, DAPK2(h) (Homo sapiens, UniProt Q9UIK4); conditions: read-out: % Residual Activity
T8 construct: purchased Eurofins (KinaseProfiler)
How it was run: as §1

DCAMKL3(h) = biological target: T9, DCAMKL3(h) (Homo sapiens, UniProt Q9C098); conditions: read-out: % Residual Activity
T9 construct: purchased Eurofins (KinaseProfiler)
How it was run: as §1

DNA-PK(h) = biological target: T10, DNA-PK(h) (Homo sapiens, UniProt P78527); conditions: read-out: % Residual Activity
T10 construct: purchased Eurofins (KinaseProfiler)
How it was run: as §1

DYRK2(h) = biological target: T11, DYRK2(h) (Homo sapiens, UniProt Q92630); conditions: read-out: % Residual Activity
T11 construct: purchased Eurofins (KinaseProfiler)
How it was run: as §1

EGFR(L861Q)(h) = biological target: T12, EGFR(L861Q)(h) (Homo sapiens, UniProt P00533, L861Q); conditions: read-out: % Residual Activity
T12 construct: purchased Eurofins (KinaseProfiler)
How it was run: as §1

Flt1(h) = biological target: T13, Flt1(h) (Homo sapiens, UniProt P17948); conditions: read-out: % Residual Activity
T13 construct: purchased Eurofins (KinaseProfiler)
How it was run: as §1

GRK2(h) = biological target: T14, GRK2(h) (Homo sapiens, UniProt P25098); conditions: read-out: % Residual Activity
T14 construct: purchased Eurofins (KinaseProfiler)
How it was run: as §1

GSK3α(h) = biological target: T15, GSK3α(h) (Homo sapiens, UniProt P49840); conditions: read-out: % Residual Activity
T15 construct: purchased Eurofins (KinaseProfiler)
How it was run: as §1

GSK3β(h) = biological target: T16, GSK3β(h) (Homo sapiens, UniProt P49841); conditions: read-out: % Residual Activity
T16 construct: purchased Eurofins (KinaseProfiler)
How it was run: as §1

Hck(h) activated = biological target: T17, Hck(h) activated (Homo sapiens, UniProt P08631); conditions: read-out: % Residual Activity
T17 construct: purchased Eurofins (KinaseProfiler)
How it was run: as §1

ICK(h) = biological target: T18, ICK(h) (Homo sapiens, UniProt Q9UPZ9); conditions: read-out: % Residual Activity
T18 construct: purchased Eurofins (KinaseProfiler)
How it was run: as §1

IGF-1R(h) = biological target: T19, IGF-1R(h) (Homo sapiens, UniProt P08069); conditions: read-out: % Residual Activity
T19 construct: purchased Eurofins (KinaseProfiler)
How it was run: as §1

IKKε(h) = biological target: T20, IKKε(h) (Homo sapiens, UniProt Q14164); conditions: read-out: % Residual Activity
T20 construct: purchased Eurofins (KinaseProfiler)
How it was run: as §1

JAK1(h) = biological target: T21, JAK1(h) (Homo sapiens, UniProt P23458); conditions: read-out: % Residual Activity
T21 construct: purchased Eurofins (KinaseProfiler)
How it was run: as §1

JAK2(h) = biological target: T22, JAK2(h) (Homo sapiens, UniProt O60674); conditions: read-out: % Residual Activity
T22 construct: purchased Eurofins (KinaseProfiler)
How it was run: as §1

JNK1α1(h) = biological target: T23, JNK1α1(h) (Homo sapiens, UniProt P45983); conditions: read-out: % Residual Activity
T23 construct: purchased Eurofins (KinaseProfiler)
How it was run: as §1

MAPKAP-K2(h) = biological target: T24, MAPKAP-K2(h) (Homo sapiens, UniProt P49137); conditions: read-out: % Residual Activity
T24 construct: purchased Eurofins (KinaseProfiler)
How it was run: as §1

MLK3(h) = biological target: T25, MLK3(h) (Homo sapiens, UniProt Q16584); conditions: read-out: % Residual Activity
T25 construct: purchased Eurofins (KinaseProfiler)
How it was run: as §1

MRCKβ(h) = biological target: T26, MRCKβ(h) (Homo sapiens, UniProt Q9Y5S2); conditions: read-out: % Residual Activity
T26 construct: purchased Eurofins (KinaseProfiler)
How it was run: as §1

Met(Y1248C)(h) = biological target: T27, Met(Y1248C)(h) (Homo sapiens, UniProt P08581, Y1230C); conditions: read-out: % Residual Activity
T27 construct: purchased Eurofins (KinaseProfiler)
How it was run: as §1

PAK6(h) = biological target: T28, PAK6(h) (Homo sapiens, UniProt Q9NQU5); conditions: read-out: % Residual Activity
T28 construct: purchased Eurofins (KinaseProfiler)
How it was run: as §1

PKCμ(h) = biological target: T29, PKCμ(h) (Homo sapiens, UniProt Q15139); conditions: read-out: % Residual Activity
T29 construct: purchased Eurofins (KinaseProfiler)
How it was run: as §1

Pim-1(h) = biological target: T30, Pim-1(h) (Homo sapiens, UniProt P11309)
T30 construct: purchased Eurofins (KinaseProfiler)
How it was run: as §1

Ret (V804L)(h) = biological target: T31, Ret (V804L)(h) (Homo sapiens, UniProt P07949, V804L); conditions: read-out: % Residual Activity
T31 construct: purchased Eurofins (KinaseProfiler)
How it was run: as §1

Ret(V804M)(h) = biological target: T32, Ret(V804M)(h) (Homo sapiens, UniProt P07949, V804M); conditions: read-out: % Residual Activity
T32 construct: purchased Eurofins (KinaseProfiler)
How it was run: as §1

Ret(h) = biological target: T33, Ret(h) (Homo sapiens, UniProt P07949); conditions: read-out: % Residual Activity
T33 construct: purchased Eurofins (KinaseProfiler)
How it was run: as §1

SGK2(h) = biological target: T34, SGK2(h) (Homo sapiens, UniProt Q9HBY8); conditions: read-out: % Residual Activity
T34 construct: purchased Eurofins (KinaseProfiler)
How it was run: as §1

SIK(h) = biological target: T35, SIK(h) (Homo sapiens, UniProt P57059); conditions: read-out: % Residual Activity
T35 construct: purchased Eurofins (KinaseProfiler)
How it was run: as §1

Tec(h) activated = biological target: T36, Tec(h) activated (Homo sapiens, UniProt P42680); conditions: read-out: % Residual Activity
T36 construct: purchased Eurofins (KinaseProfiler)
How it was run: as §1

ULK3(h) = biological target: T37, ULK3(h) (Homo sapiens, UniProt Q6PHR2); conditions: read-out: % Residual Activity
T37 construct: purchased Eurofins (KinaseProfiler)
How it was run: as §1

WNK3(h) = biological target: T38, WNK3(h) (Homo sapiens, UniProt Q9BYP7); conditions: read-out: % Residual Activity
T38 construct: purchased Eurofins (KinaseProfiler)
How it was run: as §1

T30 sequence (P11309 whole entry): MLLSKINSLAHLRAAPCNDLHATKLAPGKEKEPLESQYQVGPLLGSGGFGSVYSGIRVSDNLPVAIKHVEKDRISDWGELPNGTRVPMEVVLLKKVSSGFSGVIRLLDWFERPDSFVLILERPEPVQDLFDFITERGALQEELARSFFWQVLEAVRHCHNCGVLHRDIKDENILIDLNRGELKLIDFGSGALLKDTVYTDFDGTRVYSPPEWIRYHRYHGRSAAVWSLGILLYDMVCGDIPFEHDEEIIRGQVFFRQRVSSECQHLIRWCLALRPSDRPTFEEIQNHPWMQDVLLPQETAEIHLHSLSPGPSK
T5 sequence (P16277 2-499 limits assumed): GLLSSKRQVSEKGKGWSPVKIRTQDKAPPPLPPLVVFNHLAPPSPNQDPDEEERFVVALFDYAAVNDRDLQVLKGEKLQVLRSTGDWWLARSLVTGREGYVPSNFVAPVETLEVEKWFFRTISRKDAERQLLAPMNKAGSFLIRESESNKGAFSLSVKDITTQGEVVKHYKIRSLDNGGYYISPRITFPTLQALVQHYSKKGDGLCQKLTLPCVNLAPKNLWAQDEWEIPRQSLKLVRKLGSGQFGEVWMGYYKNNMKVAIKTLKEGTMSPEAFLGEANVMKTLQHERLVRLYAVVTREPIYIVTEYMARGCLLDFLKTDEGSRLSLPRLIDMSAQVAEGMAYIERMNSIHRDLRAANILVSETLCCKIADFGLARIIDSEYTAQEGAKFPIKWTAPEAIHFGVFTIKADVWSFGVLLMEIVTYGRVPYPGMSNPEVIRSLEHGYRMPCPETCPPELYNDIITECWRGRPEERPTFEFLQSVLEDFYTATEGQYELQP
T12 sequence (P00533 25-1210 L861Q): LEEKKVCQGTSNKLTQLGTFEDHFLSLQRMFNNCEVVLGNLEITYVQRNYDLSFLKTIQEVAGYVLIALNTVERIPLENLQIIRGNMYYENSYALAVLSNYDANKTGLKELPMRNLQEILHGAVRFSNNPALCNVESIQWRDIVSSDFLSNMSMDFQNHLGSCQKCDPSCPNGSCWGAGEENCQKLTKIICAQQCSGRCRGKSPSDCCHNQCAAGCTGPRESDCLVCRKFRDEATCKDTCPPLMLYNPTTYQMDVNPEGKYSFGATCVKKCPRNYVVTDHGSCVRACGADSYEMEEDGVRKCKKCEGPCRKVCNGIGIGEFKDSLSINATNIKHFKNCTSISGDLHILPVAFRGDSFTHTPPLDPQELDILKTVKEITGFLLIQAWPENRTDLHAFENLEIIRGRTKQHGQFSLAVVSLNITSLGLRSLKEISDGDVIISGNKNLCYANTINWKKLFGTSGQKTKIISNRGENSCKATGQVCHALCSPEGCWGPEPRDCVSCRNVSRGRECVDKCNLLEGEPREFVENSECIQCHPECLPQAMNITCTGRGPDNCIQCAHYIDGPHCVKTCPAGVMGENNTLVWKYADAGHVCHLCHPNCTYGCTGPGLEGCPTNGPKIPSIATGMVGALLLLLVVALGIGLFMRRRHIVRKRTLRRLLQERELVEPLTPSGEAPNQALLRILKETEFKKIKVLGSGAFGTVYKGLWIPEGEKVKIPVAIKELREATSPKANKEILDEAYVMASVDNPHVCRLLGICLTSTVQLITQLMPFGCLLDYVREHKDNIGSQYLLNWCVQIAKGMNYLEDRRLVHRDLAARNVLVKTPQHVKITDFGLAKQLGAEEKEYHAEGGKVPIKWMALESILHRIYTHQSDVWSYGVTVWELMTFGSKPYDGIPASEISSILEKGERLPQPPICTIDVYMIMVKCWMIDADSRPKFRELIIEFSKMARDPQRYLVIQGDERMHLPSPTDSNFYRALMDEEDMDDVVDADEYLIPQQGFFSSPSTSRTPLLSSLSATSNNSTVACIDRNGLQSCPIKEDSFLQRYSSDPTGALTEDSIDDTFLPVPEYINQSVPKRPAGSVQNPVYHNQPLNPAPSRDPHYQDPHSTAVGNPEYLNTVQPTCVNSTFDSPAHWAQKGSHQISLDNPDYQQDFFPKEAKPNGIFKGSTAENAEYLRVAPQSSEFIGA
T26 sequence (Q9Y5S2 whole entry): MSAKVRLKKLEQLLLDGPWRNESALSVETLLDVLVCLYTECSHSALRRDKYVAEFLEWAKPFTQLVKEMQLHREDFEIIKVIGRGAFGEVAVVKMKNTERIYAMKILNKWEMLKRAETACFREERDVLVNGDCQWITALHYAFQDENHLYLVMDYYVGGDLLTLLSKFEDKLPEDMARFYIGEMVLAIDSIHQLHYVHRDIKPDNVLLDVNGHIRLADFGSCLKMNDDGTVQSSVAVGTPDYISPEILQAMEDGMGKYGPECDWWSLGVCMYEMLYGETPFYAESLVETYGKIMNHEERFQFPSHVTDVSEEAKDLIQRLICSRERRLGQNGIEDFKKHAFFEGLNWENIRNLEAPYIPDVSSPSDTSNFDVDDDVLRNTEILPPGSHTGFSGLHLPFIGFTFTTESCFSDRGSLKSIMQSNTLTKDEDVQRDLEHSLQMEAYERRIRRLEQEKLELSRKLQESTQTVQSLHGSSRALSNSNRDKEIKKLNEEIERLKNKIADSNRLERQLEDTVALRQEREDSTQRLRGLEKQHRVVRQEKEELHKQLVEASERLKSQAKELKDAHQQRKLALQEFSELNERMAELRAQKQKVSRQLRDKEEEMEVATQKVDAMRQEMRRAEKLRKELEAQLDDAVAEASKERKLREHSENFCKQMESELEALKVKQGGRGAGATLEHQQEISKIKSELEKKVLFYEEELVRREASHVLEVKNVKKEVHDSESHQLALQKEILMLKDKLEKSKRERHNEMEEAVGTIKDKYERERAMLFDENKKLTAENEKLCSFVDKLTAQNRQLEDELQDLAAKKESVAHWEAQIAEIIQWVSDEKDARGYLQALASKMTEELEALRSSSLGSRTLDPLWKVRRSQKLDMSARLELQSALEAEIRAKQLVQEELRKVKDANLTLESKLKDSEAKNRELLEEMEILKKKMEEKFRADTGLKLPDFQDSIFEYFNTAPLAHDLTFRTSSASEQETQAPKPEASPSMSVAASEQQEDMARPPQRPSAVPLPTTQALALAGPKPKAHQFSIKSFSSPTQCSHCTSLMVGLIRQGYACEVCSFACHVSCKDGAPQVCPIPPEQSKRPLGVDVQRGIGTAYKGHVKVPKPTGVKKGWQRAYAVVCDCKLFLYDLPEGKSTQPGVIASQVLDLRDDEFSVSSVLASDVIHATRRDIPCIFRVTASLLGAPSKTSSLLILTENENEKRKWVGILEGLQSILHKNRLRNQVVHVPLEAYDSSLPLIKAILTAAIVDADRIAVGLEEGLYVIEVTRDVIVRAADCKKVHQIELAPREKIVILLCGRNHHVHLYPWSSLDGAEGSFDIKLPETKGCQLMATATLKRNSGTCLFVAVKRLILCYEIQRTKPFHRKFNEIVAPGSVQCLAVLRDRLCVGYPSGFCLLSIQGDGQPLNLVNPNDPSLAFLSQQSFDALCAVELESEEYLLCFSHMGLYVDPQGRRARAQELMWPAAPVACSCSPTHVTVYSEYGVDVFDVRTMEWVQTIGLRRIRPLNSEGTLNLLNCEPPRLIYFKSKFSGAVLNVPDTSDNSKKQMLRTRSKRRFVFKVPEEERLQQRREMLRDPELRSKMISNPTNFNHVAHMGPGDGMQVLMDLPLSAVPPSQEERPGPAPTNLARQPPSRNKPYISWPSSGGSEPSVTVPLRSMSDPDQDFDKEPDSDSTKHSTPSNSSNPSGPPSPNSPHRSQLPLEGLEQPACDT
T13 sequence (P17948 27-1338): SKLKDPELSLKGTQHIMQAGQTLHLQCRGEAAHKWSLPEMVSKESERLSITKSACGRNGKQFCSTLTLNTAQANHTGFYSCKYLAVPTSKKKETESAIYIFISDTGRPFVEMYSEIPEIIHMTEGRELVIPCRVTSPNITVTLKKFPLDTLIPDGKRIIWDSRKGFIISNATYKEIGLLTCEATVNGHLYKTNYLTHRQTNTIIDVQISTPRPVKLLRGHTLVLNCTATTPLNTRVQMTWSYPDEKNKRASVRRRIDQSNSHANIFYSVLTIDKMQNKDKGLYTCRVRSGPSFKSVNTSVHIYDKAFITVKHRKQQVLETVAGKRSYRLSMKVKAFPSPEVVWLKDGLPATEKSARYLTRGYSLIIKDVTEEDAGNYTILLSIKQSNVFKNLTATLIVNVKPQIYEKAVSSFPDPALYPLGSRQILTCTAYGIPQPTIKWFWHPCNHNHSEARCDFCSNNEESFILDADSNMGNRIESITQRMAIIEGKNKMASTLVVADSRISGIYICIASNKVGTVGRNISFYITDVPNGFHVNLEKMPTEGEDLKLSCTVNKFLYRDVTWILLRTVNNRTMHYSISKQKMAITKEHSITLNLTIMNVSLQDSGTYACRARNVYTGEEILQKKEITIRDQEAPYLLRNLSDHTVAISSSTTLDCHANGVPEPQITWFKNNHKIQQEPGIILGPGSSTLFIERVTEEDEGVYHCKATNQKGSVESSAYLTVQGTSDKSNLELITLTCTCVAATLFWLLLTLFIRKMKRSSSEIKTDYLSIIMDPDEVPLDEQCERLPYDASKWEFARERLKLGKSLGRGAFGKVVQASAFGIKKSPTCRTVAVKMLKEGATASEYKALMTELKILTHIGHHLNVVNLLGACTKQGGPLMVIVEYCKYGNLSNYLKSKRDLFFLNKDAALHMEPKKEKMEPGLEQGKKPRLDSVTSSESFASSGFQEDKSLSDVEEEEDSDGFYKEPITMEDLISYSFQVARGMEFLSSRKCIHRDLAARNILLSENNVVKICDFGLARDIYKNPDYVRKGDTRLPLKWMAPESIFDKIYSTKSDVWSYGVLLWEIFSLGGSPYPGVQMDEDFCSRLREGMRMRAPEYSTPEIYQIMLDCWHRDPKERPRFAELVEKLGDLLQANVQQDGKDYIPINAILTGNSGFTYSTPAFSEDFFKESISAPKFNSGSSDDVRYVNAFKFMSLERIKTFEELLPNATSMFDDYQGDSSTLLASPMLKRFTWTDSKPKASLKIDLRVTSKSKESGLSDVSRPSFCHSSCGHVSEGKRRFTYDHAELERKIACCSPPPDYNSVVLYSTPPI

Cc1cc(/C=C/C#N)cc(C)c1Nc1ccnc(Nc2ccc(C#N)cc2)n1 [rilpivirine, (E)-4-((4-((4-(2-cyanoethenyl)-2,6-dimethylphenyl)amino)pyrimidin-2-yl)amino)benzonitrile]
remaining activity at 1 µM (ACTR2(h)): 91% | remaining activity at 1 µM (Abl (H396P) (h)): 71% | remaining activity at 1 µM (Abl(T315I)(h)): 93% | remaining activity at 1 µM (BTK(R28H)(h)): 97% | remaining activity at 1 µM (Blk(m)): 75% | remaining activity at 1 µM (CHK2(h)): 93% | remaining activity at 1 µM (Cdc7/cyclinB1(h)): 93% | remaining activity at 1 µM (DAPK2(h)): 80% | remaining activity at 1 µM (DCAMKL3(h)): 95% | remaining activity at 1 µM (DNA-PK(h)): 95% | remaining activity at 1 µM (DYRK2(h)): 89% | remaining activity at 1 µM (EGFR(L861Q)(h)): 35% | remaining activity at 1 µM (Flt1(h)): 100% | remaining activity at 1 µM (GRK2(h)): 81% | remaining activity at 1 µM (GSK3α(h)): 80% | remaining activity at 1 µM (GSK3β(h)): 84% | remaining activity at 1 µM (Hck(h) activated): 63% | remaining activity at 1 µM (ICK(h)): 99% | remaining activity at 1 µM (IGF-1R(h)): 89% | remaining activity at 1 µM (IKKε(h)): 82% | remaining activity at 1 µM (JAK1(h)): 79% | remaining activity at 1 µM (JAK2(h)): 72% | remaining activity at 1 µM (JNK1α1(h)): 90% | remaining activity at 1 µM (MAPKAP-K2(h)): 100% | remaining activity at 1 µM (MLK3(h)): 81% | remaining activity at 1 µM (MRCKβ(h)): 87% | remaining activity at 1 µM (Met(Y1248C)(h)): 100% | remaining activity at 1 µM (PAK6(h)): 117% | remaining activity at 1 µM (PKCμ(h)): 98% | remaining activity at 1 µM (Pim-1(h); 1 μM, read-out: % Residual Activity): 22% | inhibition at 1 µM (Pim-1(h); PIM1, 1 μM, read-out: inhibitory activity): > 70% | remaining activity at 1 µM (Ret (V804L)(h)): 91% | remaining activity at 1 µM (Ret(V804M)(h)): 92% | remaining activity at 1 µM (Ret(h)): 108% | remaining activity at 1 µM (SGK2(h)): 97% | remaining activity at 1 µM (SIK(h)): 66% | remaining activity at 1 µM (Tec(h) activated): 105% | remaining activity at 1 µM (ULK3(h)): 94% | remaining activity at 1 µM (WNK3(h)): 83%

Reference: article PMC9954146, “Anti-Leukaemic Activity of Rilpivirine Is Mediated by Aurora A Kinase Inhibition” (Cancers, 2023)
